Measured values reported in publication doi:10.1101/2021.07.05.449867v2 (biorxiv, 2021).

Tested on: ZRK
Test: NAD
Assay type: biochemical, Zygosaccharomyces rouxii
Conditions: 2000 uM NADPH/NADH; enzyme 1 ug/ml; optimal buffer

Structure (SMILES) | Km [µM]
CC(=O)c1cc(C(F)(F)F)cc(C(F)(F)F)c1 [Aprepitant K-INT, 1-(3,5-bis-trifluoromethyl-phenyl)-ethanone] | 186
COC(=O)CC(=O)Cc1cc(F)c(F)cc1F [Sitagliptin K-INT, 3-oxo-4-(2,4,5-trifluoro-phenyl)-butyric acid methyl ester] | 346
